# Data from US8975251B2, “Methods of improving cognitive functions” (Bar-Ilan University, priority 2009, dated 2015).
# “Also recorded” adds a separate entry of the source. Structures can show the parent of a compound that is named as a salt.
# Key:
# [1] = test system: patients having acute exacerbation of schizophrenia; test: Clinical trial, Brief Assessment of Cognition in Schizophrenia (BACS); format: in vivo, human; conditions: for BACS mean change from baseline at Day 42, Mean (SD): 42 days; for BACS Difference in LS-mean vs. Risperidone (ANCOVA) / BACS Difference in LS-means vs. Placebo (ANCOVA): Day 42; for cognitive functions as compared to the placebo: schizophrenic patients, human clinical trial
# Procedure: The trial was conducted at forty sites located in the USA, Europe and India. For the trial 363 patients were recruited and randomized equally. Drugs (BL-1020, 10 mg/day; BL-1020, 20-30 mg/day; risperidone, 2-8 mg/day and placebo) have been administered to designated patients (double blinded) daily over a period of 42 days.
# Key secondary efficacy measures included the Clinical Global Impression of Severity (CGI-S), the Clinical Global Impression of Change (CGI-C) from baseline, and effect on cognition as measured by the Brief Assessment of Cognition in Schizophrenia (BACS). Risperidone at a dose of 2-8 mg was included as a positive control to validate the study results.
# Assessments of cognitive functions of treated patients have been performed on day zero (baseline) and on day 42 (end of study), using the test battery designed for use in patients with schizophrenia [Richard Keefe (Ed.), Brief Assessment of Cognition in Schizophrenia (BACS) Version 3.0, Duke University Medical Center, 1999; and Keefe et al., Schizophrenia Research, 68: 283-297, 2004]. The battery consists of brief assessments of processing speed, reasoning and problem solving and verbal and working memory. A composite score is obtained by summing the z-scores of six measures (verbal memory, digit sequencing, token motor task, fluency, symbol coding and Tower of London).
# [2] = test system: PCP-induced reversal learning deficit; test: PCP-induced reversal learning task in rats; format: in vivo, rat
# Excerpt: Antipsychotic drugs: BL-1020 (perphenazine 4-aminobutyrate, mesylate salt; BioLineRx Ltd., Israel; administered per os); risperidone (Sigma, UK; administered intra-peritoneally); and perphenazine (Sigma, Israel; administered per os).
# GABAA antagonists: picrotoxin (Sigma, UK; administered intra-peritoneally); and bicuculline (Sigma, UK; administered intra-peritoneally).
# Female hooded-Lister rats (Charles River, UK) were housed in groups of five under standard laboratory conditions under a 12 hr diurnal cycle. Rats were maintained at approx 85% of free-feeding body weight average (250 grams) for the duration of the study.
# Following habituation to the operant chambers, rats were trained to respond for food on an FR1 (Fixed Ratio 1) schedule of reinforcement with active levers active, as described by Abdul-Monim et al. (J. Psychopharmacology 17: 57-65, 2003). When a proper response for food was established the rats were trained to press either the left or right lever (only one of levers was active) for food delivery. The active lever was varied from day to day using a pseudorandom Gellerman schedule, which randomly assigns either the left or right lever as active, thus avoiding generation of a lever bias. Each session lasted 20 minutes and counts were recorded on each lever.
# Following completion of the first phase of training (within about two weeks) the rats were trained to respond ter food according to the position of a visual cue (a lit LED). Half of the rats were trained to press the lever under the lit LED in order to receive a food reward. The other half of the rats were trained on the opposite contingency (i.e., to press the lever under the non-lit LED). Each training session began with illumination of the house-light. After three seconds both levers, together with the visual cue, were presented. The cue was presented for one second. […] The levers were then retracted and the house light was extinguished for a three-second time-out period, during which the pellet was consumed (if a correct response had been made). The house-light was then turned on again and the cycle repeated. Following 128 lever presses (which lasted approximately 30 minutes) the training session was terminated.
# Each rat had one training session per day. Rats were required to make at least 115 responses on the correct lever (90% correct responding) on at least three consecutive days (which was generally achieved within two weeks). The contingency (visual cue, i.e. LED on or off, relative to active lever) remained constant during this period, though the position of the active lever varied from day to day according to a pseudo-random Gellerman schedule.
# Subsequently, rats were trained until they again reached criterion on the opposite contingency (which was generally achieved within two weeks)). Rats achieved criterion at the same rate irrespective of whether they responded to one rule or the other. […]
# Following a 7 day drug (PCP)-free period the rats were treated with test agents (antipsychotic drugs and GABAA-receptor antagonists). Sixty minutes later the rats were exposed for five-minutes (“initial phase”) to the same contingency (cue position relative to active lever) as was during the operant training session and their responses (pressing on correct and incorrect levers) were recorded. Following a two-minutes recess the animals were exposed for five-minutes to a reversed contingency (“reversal phase”) during which their responses (pressing on correct and incorrect levers) were recorded. […]
compound,measurement,setting,value
"NCCCC(=O)OCCN1CCN(CCCN2c3ccccc3Sc3ccc(Cl)cc32)CC1 [BL-1020, 4-amino-butyric acid 2-{4-[3-(2-chloro-phenothiazin-10-yl)-propyl]piperazin-1-yl}-ethyl ester]","BACS test mean score at Baseline, Mean (SD)","[1]; BL-1020 10 mg/day group, day 0, n = 90",16.7 (15.5)
same,"BACS mean change from baseline at Day 42, Mean (SD)",[1]; BL-1020 10 mg/day,5.1 (7.1)
same,BACS Difference in LS-mean vs. Risperidone (ANCOVA),[1]; BL-1020 10 mg/day,0.11
same,BACS Difference in LS-means vs. Placebo (ANCOVA),[1]; BL-1020 10 mg/day,0.63
same,"BACS test mean score at Baseline, Mean (SD)","[1]; BL-1020 30 mg/day group, day 0, n = 89",15.3 (15.5)
same,"BACS mean change from baseline at Day 42, Mean (SD)",[1]; BL-1020 30 mg/day,8.3 (8.5)
same,BACS Difference in LS-mean vs. Risperidone (ANCOVA),[1]; BL-1020 30 mg/day,3.40
same,BACS Difference in LS-means vs. Placebo (ANCOVA),[1]; BL-1020 30 mg/day,3.92
same,BACS score increase,"[1]; BL-1020 high dose 20-30 mg/day, after 42 days",8.3 points
same,cognitive functions as compared to the placebo,[1],significantly improved
same,effect on PCP-induced reversal learning deficit (percent correct response),"[2]; BL-1020 3 mg/kg per os, 60 min before task, p<0.01, 3 mg/kg",significantly improved; also recorded: significant improvement
"c1ccc(C2(N3CCCCC3)CCCCC2)cc1 [PCP, phencyclidine hydrochloride]",percent correct responding animals in the reversal learning task,"[2]; PCP 2 mg/kg intra-peritoneally twice daily for 7 days, p<0.01",significantly reduced
"Cc1nc2n(c(=O)c1CCN1CCC(c3noc4cc(F)ccc34)CC1)CCCC2 [Risperidone, risperidone, reference compound]","BACS test mean score at Baseline, Mean (SD)","[1]; Risperidone 8 mg/day group, day 0, n = 91",13.5 (12.3)
same,"BACS mean change from baseline at Day 42, Mean (SD)",[1]; Risperidone 8 mg/day,5.7 (6.2)
same,BACS Difference in LS-means vs. Placebo (ANCOVA),[1]; Risperidone 8 mg/day,0.52
same,cognitive functions as compared to the placebo,[1],failed to improve cognitive functions
OCCN1CCN(CCCN2c3ccccc3Sc3ccc(Cl)cc32)CC1 [perphenazine],effect on PCP-induced reversal learning deficit (percent correct response),[2]; perphenazine 2.49 mg/kg per os (equivalent to perphenazine moiety in 3 mg/kg BL-1020),did not significantly improve; also recorded: failed to improve cognitive functions
picrotoxin,effect on BL-1020 improvement of PCP-induced reversal learning deficit,"[2]; picrotoxin 0.5 mg/kg co-administered with BL-1020 3 mg/kg, p<0.001",negated the BL-1020 effect
same,effect on PCP-induced reversal learning deficit (percent correct response),"[2]; picrotoxin 0.25, 0.5 and 1 mg/kg intra-peritoneally",did not significantly improve
